In PMC10400981, “An expandable, modular de novo protein platform for precision redox engineering” (Proceedings of the National Academy of Sciences of the …, 2023) one finds Kd data, which are given here for two compounds.

Test [1] concerns the target T1, m4D2.
T1 construct: monoheme redesign of 4D2
Put plainly: binding titration; 2D/3D NMR of the complex. On the set-up: species or system synthetic construct.

The target in another test is T2, 4D2.
T2 construct: single-chain de novo four-helix bundle, 112 amino acids after TEV cleavage
Kind of test: […] Å crystal structure (MAD); hemin titration by UV/visible; nondenaturing MS. Type of test: binding, synthetic construct.

Test [2] has as its target T1, m4D2. Put plainly: hemin titration of apo-m4D2 by UV/visible; nondenaturing MS ([…]). Type of test: binding, synthetic construct.

The structures appear in SMILES notation. Some results are limits rather than exact numbers.

The Kd is the equilibrium constant for the complex coming apart. Lower therefore signals higher affinity. With `CC1=C(C)C2=[N+]3C1=Cc1c(C)c(CCC(=O)O)c4[n]1[Fe-]31[n]3c(c(C)c(C)c3=CC3=[N+]1C(=C4)C(CCC(=O)O)=C3C)=C2` (stereo not drawn) [Fe(III) DMDPIX], at m4D2 [1], the Kd is 25 nM.
As for `C=CC1=C(C)C2=Cc3c(C=C)c(C)c4[n]3[Fe][n]3c(c(C)c(CCC(=O)O)c3=CC3=NC(=C4)C(C)=C3CCC(=O)O)=CC1=N2` [heme B], the figures for the equilibrium dissociation constant (Kd) at 4D2 and on m4D2 [2] were under 5 nM and 4.2 nM, respectively.
